# Source: patent US20260158050A1, “USE OF EIDD-1931 OR DERIVATIVE THEREOF IN TREATMENT OF ENTEROVIRUS INFECTION” (ACADEMY OF MILITARY MEDICAL SCIENCES, priority 2022, published 2026)
# Assays:
# EV-A71 H strain = assay: protection against cytopathic effect (CPE) caused by EV-A71, Cell-Titer Glo; type: cell-based; conditions: for EC50: EV-A71 H strain, 3 days; for inhibition of the cytopathic effect caused by the virus: multiple cell lines infected with EV-A71 (FIG. 2)
# Description: Human liver tumor cells (Huh7 cells) used in the experiment were purchased from Chinese National Infrastructure of Cell Line Resource. Human […] cells (RD cells) and African green monkey kidney cells (Vero cells) were purchased from ATCC (Cat. No.: CCL-136 and CCL-81, respectively). The above cells were cultured in a cell culture incubator at 37° C. and 5% CO2. The complete culture medium used for cell growth was DMEM high-glucose culture medium (purchased from Gibco, Cat. […] No.: 16000044) and penicillin-streptomycin (purchased from Gibco, Cat. No.: 2321152). The maintenance culture medium used for cell culture was DMEM high-glucose culture medium supplemented with 2% FBS and penicillin-streptomycin. H strain of EV-A71 was purchased from ATCC (Cat. No.: VR-1432). Compounds EIDD-1931 and EIDD-2801 were purchased from Shanghai Topscience Biochemical Technology Co., Ltd. (Cat Nos: […] and […], respectively), and their structures were shown in FIG. 1. Cell-Titer Glo® Luminescent Cell Viability Assay Solution was purchased from Promega (Cat. No.: G7572). The microplate reader, model Spectra Max M5, was purchased from Molecular Devices. Huh7 cells, RD cells, and Vero cells were seeded into a 96-well plate with a white wall and a transparent bottom at a density of about 1.0×10^4 per well and cultured at 37° C. and 5% CO2 for 24 hours. Then, the EV-A71 virus was diluted with cell maintenance solution and added to the 96-well plate to reach a final concentration of 100TCID50. […] After 3 days, the supernatant was discarded, and the diluted Cell-Titer Glo® Luminescent Cell Viability Assay Solution was added. The cells were shaken and lysed for 5 minutes in the dark, and then allowed to stand for 3 minutes. Finally, the luminescence value of each well was measured using the microplate reader. The formula for calculating the inhibition rate of the test compounds against virus was: [formula] Origin9.0 software was used to fit the inhibition rate-concentration S-shaped curve and calculate the half-maximal effective concentrations (EC50) of the test compounds. The half-cytotoxic concentrations (CC50) of the test compounds were calculated using the same method, and the select index (SI) was calculated based on EC50 and CC50: SI=CC50/EC50.
# EV-A71 [1] = assay: time series experiment, intracellular viral RNA load in RD cells; type: cell-based; conditions: 10 μM, 0.01 MOI (FIG. 5)
# Description: The specific steps were as follows: RD cells were seeded in a 12-well plate at a density of about 4.0×10^5 per well and cultured at 37° C. and 5% CO2 for 24 hours. Subsequently, the test compound EIDD-1931, the positive compound NITD008 and the EV-A71 virus were diluted to the corresponding concentrations with the cell maintenance medium, and then the pre-diluted compound or virus was added at the time point as shown in A in FIG. 5. After 30 hours of continuous culture, the cell supernatant was discarded, the intracellular RNA was extracted, and the intracellular viral RNA load was detected by qRT-PCR. The intracellular RNA extraction method and qRT-PCR system and reaction conditions were the same as described above.
# EV-A71 [2] = assay: protection of 1-day-old ICR suckling mice with lethal EV-A71 infection; type: in vivo; conditions: for protective effect on ICR suckling mice inoculated with a lethal dose of EV-A71: 200, 66.6, 22.2, 7.41 mg/kg intraperitoneally once per day for 7 days
# Description: 10 litters of 1-day-old ICR offspring female mice were randomly divided into 10 groups, namely, virus control group (2 groups), EIDD-1931 administration group (4 groups), and EIDD-2801 administration group (4 groups). The dosages of EIDD-1931 and EIDD-2801 were 200 mg/kg, 66.6 mg/kg, 22.2 mg/kg, and 7.41 mg/kg, respectively. Each mouse was challenged with 10^6 PFU intraperitoneally, and administrated the drug intraperitoneally 4 hours later. The mice of virus control group were administrated the drug solvent. And then, the drug was administered once per day for 7 consecutive days. The mice were weighed, and the survival and weight changes in the mice were recorded every day.
# Log-Rank was used to calculate the statistical significance of the survival curve. p<0.05 indicated statistical significance.
# various enteroviruses = assay: broad-spectrum anti-enteroviral activity (CPE), summary over viruses; type: cell-based; conditions: all viruses of Table 1; read-out: EC50 values against various enteroviruses
# Description: In this experiment, the experiment on protection of EIDD-1931 and EIDD-2801 against CPE caused by EV-A71 virus AH08/06 strain, EV-D68 virus STL-2014-12 strain, CV-A6 TW-2007-00141 strain, and CV-A16 190-D1 strain were all performed by using RD cells. The experiments on protection of EIDD-1931 and EIDD-2801 against CPE caused by CV-B3 Nancy strain were performed by using Vero cells. The specific experimental methods were the same as those in Example 1.
# [3] = test system: CHIKV, VEEV, RSV, HCV, NV, IAV, IBV, EBOV, MERS-CoV, SARS-CoV-2; conditions: background art; cited from earlier work
# MERS-CoV or SARS-CoV = conditions: mice, cited from earlier work
SMILES,EC50 (EV-A71 H strain; Huh7 cells) [µM],EC50 (EV-A71 H strain; RD cells) [µM],EC50 (EV-A71 H strain; Vero cells) [µM],SI (CC50/EC50) (EV-A71 H strain; Huh7 cells),SI (CC50/EC50) (EV-A71 H strain; RD cells),SI (CC50/EC50) (EV-A71 H strain; Vero cells),inhibition of the cytopathic effect caused by the virus (EV-A71 H strain),time within which the mice died (EV-A71 [2]; 7.41 mg/kg intraperitoneally) [days],protective effect on ICR suckling mice inoculated with a lethal dose of EV-A71 (EV-A71 [2]),also measured
O=c1nc(NO)ccn1[C@@H]1O[C@H](CO)[C@@H](O)[C@H]1O [EIDD-1931],4.43 ± 0.33,5.13 ± 0.56,7.04 ± 0.38,7.69,15.69,2.0,dose-dependently inhibit,≤ 12,dose-dependent protective effect,"inhibition on the adsorption and entry of the virus (EV-A71 [1]): no obvious inhibition; stage of virus infection at which the antiviral effect is exerted (EV-A71 [1]): viral replication stage; survival rate (EV-A71 [2]; 22.2 mg/kg intraperitoneally): 60%; protection from the lethal dose of EV-71 virus (EV-A71 [2]; 66.6 mg/kg intraperitoneally): completely protect; protection from the lethal dose of EV-71 virus (EV-A71 [2]; 200 mg/kg intraperitoneally): completely protect; weight gain of surviving mice (EV-A71 [2]; 200, 66.6 and 22.2 mg/kg): good weight gain; EC50 (various enteroviruses): < 20 µM; inhibitory effects against CHIKV, VEEV, RSV, HCV, NV, IAV, IBV, EBOV, MERS-CoV and SARS-CoV-2 [3]: good inhibitory effects"
CC(C)C(=O)OC[C@H]1O[C@@H](n2cc/c(=N\O)[nH]c2=O)[C@H](O)[C@@H]1O [EIDD-2801],35.6 ± 0.47,70.1 ± 4.4,88.5 ± 3.18,> 2.81,> 1.43,> 1.13,dose-dependently inhibit,≤ 13,dose-dependent protective effect,time within which the mice died (EV-A71 [2]; 22.2 mg/kg intraperitoneally): ≤ 13 days; survival rate (EV-A71 [2]; 66.6 mg/kg intraperitoneally): 67%; survival rate (EV-A71 [2]; 200 mg/kg intraperitoneally): 100%; lung damage caused by MERS-CoV or SARS-CoV infections (MERS-CoV or SARS-CoV; preventive use): prevent lung damage; degree of lung damage and weight loss (MERS-CoV or SARS-CoV; therapeutic use within 12 hours or 24 hours after infection): significantly reduce
